# According to US11207337B2, “Co-therapy comprising canagliflozin and phentermine for the treatment of obesity and obesity related disorders” (Janssen Pharmaceutica NV, priority 2015, dated 2021):
# Experiments:
# [1] = test system: C. elegans; conditions: BOHB treatment of the worm (C. elegans); Edwards et al. 2014; cited from earlier work
# [2] = 26 week randomized, double-blind, placebo-controlled clinical trial: body weight; type: in vivo, human; conditions: for Absolute Body Weight Change from Baseline at Week 26, LS Mean / Body weight % Change from Baseline at Week 26, LS Mean: MMRM; for Body weight % Change from Baseline at Week 26, LS Mean: overweight or obese non-diabetic adults; for Absolute Body Weight Change from Baseline at Week 26, Diff. of LS Means Minus Placebo / Body weight % Change from Baseline at Week 26, Diff. of LS Means Minus Placebo: placebo-subtracted; for estimated contribution to the weight loss observed at Week 26: share of the weight loss in the co-therapy group
# Description: (§1) The safety and efficacy of combination treatment with 300 mg canagliflozin and 15 mg phentermine was investigated in a 26 week, randomized, double-blind, placebo-controlled, parallel group, multi-center study. (Complete study protocol filed and available as STUDY 28431754-OBE2002 on www.clinicaltrials.gov).
# (§2) The study began with a 4-week single blind placebo run-in period. […] All subjects were provided with diet and exercise counseling for weight loss (standardized non-pharmacological therapy) and were instructed to follow the diet and exercise program throughout the study.
# (§3) The modified intent-to-treat (mITT) analysis set included all randomized subjects who had received at least one dose of study drug. The primary efficacy endpoint was percent change from baseline in body weight at Week 26. The secondary efficacy endpoints included (1) proportion of subjects with weight loss ≥5% at Week 26, (2) absolute change from baseline in SBP ([…]) at Week 26, and (3) absolute change from baseline in body weight at Week 26. The inclusion of canagliflozin 300 mg and phentermine 15 mg as separate treatment groups allowed for a descriptive estimate of relative contribution of the individual components to the observed weight loss in the co-therapy canagliflozin 300 mg/phentermine 15 mg group and provided efficacy and safety data on canagliflozin 300 mg in the non-diabetic, overweight/obese population. Safety analyses included treatment-emergent adverse events (referred to as adverse events in this document), laboratory tests (including chemistry and hematology), and vital signs (blood pressure and pulse rate).
# The change from baseline in absolute body weight at Week 26 was analyzed with an MMRM similar to the primary efficacy endpoint.
# [3] = 26 week placebo-controlled clinical trial: systolic and diastolic blood pressure; type: in vivo, human; conditions: Week 26; for Systolic Blood Pressure Change From Baseline, LS Mean: MMRM; for Diastolic Blood Pressure, Mean change / Diastolic Blood Pressure, Median change / Systolic Blood Pressure, Mean change / Systolic Blood Pressure, Median change: change from baseline, observed; for Systolic Blood Pressure Change From Baseline, Diff. of LS Means Minus Placebo: placebo-subtracted
# Description: as §1, §2, §3
# The reduction in diastolic blood pressure of −1.6 mm Hg (baseline 80 mm Hg) was not statistically significant.
# [4] = 26 week placebo-controlled clinical trial: pulse rate (vital signs); type: in vivo, human
# Description: as §1, §2, §3
# [5] = metformin on its own, in the diabetic; cited from earlier work
# [6] = Week 26, change from baseline, observed
smiles,measurement,setting,value
"CC(O)CC(=O)O (stereo not drawn) [BOHB, beta-hydroxybutyrate]",increase in lifespan,[1],~20%
"Cc1ccc([C@@H]2O[C@H](CO)[C@@H](O)[C@H](O)[C@H]2O)cc1Cc1ccc(-c2ccc(F)cc2)s1 [Cana 300 mg, (1S)-1,5-anhydro-1-[3-[[5-(4-fluorophenyl)-2-thienyl]methyl]-4-methylphenyl]-D-glucitol]","Absolute Body Weight Change from Baseline at Week 26, LS Mean",[2],-1.9 kg
same,"Body weight % Change from Baseline at Week 26, LS Mean",[2],−1.9%
same,"Absolute Body Weight Change from Baseline at Week 26, Diff. of LS Means Minus Placebo",[2],-1.3 kg
same,"Body weight % Change from Baseline at Week 26, Diff. of LS Means Minus Placebo",[2],−1.3%
same,estimated contribution to the weight loss observed at Week 26,[2],18%
same,"Systolic Blood Pressure Change From Baseline, LS Mean",[3],−3.1 mmHg
same,"Diastolic Blood Pressure, Mean change",[3],−1.32 mmHg
same,"Diastolic Blood Pressure, Median change",[3],−1.17 mmHg
same,"Systolic Blood Pressure, Mean change",[3],−3.31 mmHg
same,"Systolic Blood Pressure, Median change",[3],−1.67 mmHg
same,"Systolic Blood Pressure Change From Baseline, Diff. of LS Means Minus Placebo",[3],−0.4 mmHg
same,"Pulse Rate, Mean change","[4]; human, in vivo",1.64 BEATS/MIN
same,"Pulse Rate, Median change","[4]; human, in vivo",0.83 BEATS/MIN
same,"pulse, LS Mean change from baseline (SE)","[4]; human, in vivo",0.7 (1.0) bpm
"CC(C)(N)Cc1ccccc1 [Phen 15 mg, 2-methyl-1-phenylpropan-2-amine]","Absolute Body Weight Change from Baseline at Week 26, LS Mean",[2],-4.1 kg
same,"Body weight % Change from Baseline at Week 26, LS Mean",[2],−4.1%
same,"Absolute Body Weight Change from Baseline at Week 26, Diff. of LS Means Minus Placebo",[2],-3.5 kg
same,"Body weight % Change from Baseline at Week 26, Diff. of LS Means Minus Placebo",[2],−3.5%
same,estimated contribution to the weight loss observed at Week 26,[2],50%
same,"Systolic Blood Pressure Change From Baseline, LS Mean",[3],−1.4 mmHg
same,"Diastolic Blood Pressure, Mean change",[3],0.55 mmHg
same,"Diastolic Blood Pressure, Median change",[3],0.67 mmHg
same,"Systolic Blood Pressure, Mean change",[3],−1.13 mmHg
same,"Systolic Blood Pressure, Median change",[3],−0.33 mmHg
same,"Systolic Blood Pressure Change From Baseline, Diff. of LS Means Minus Placebo",[3],1.3 mmHg
same,"pulse, LS Mean change from baseline (SE)",[4]; Week 26,4.1 (1.0) bpm
same,"Pulse Rate, Mean change",[4]; [6],5.02 BEATS/MIN
same,"Pulse Rate, Median change",[4]; [6],4.67 BEATS/MIN
CN(C)C(=N)N=C(N)N [metformin],average improvement in the HbA1c value,[5],1.0-1.5%
